Measured values from patent US9849138B2, “1,4-benzodiazepone-2,5-diones and related compounds with therapeutic properties” (The Regents of the University of Michigan, priority 2009, dated 2017).
Values belong to the compound of their own block, whether it stands above or below them.

Experiments:
[1] = system: infarct size and neurologic deficit; conditions: rat stroke model; cited from earlier work
[2] = system: coronary stenosis; conditions: porcine, long term treatment; cited from earlier work
[3] = target: ROCK-II (h, amino acids 11-552) (Homo sapiens (Human), UniProt O75116); assay: ROCK-II (h) inhibition assay; type: biochemical; conditions: [γ-32P-ATP] filter assay, 40 minutes at room temperature, read-out: ROCK2 IC50
Protocol: ROCK-II (h) Inhibition Assay:
In a final reaction volume of 25 μL, ROCK-II (h, amino acids 11-552) (5-10 mU) was incubated with 50 mM Tris pH 7.5, 0.1 mM EGTA, 30 μM […], 10 mM magnesium acetate and [γ-^32P-ATP] (specific activity approx. 500 cpm/pmol, concentration as required). The reaction was initiated by the addition of the MgATP mix. After incubation for 40 minutes at room temperature, the reaction was stopped by the addition of 5 μL of a 3% phosphoric acid solution. 10 μL of the reaction was then spotted onto a P30 filter-mat and washed three times for 5 minutes in 75 mM phosphoric acid and once in methanol prior to drying and scintillation counting.

[4] = system: ROCK; conditions: competition with intracellular micromolar ATP; cited from earlier work
[5] = system: neointimal formation; conditions: rats; cited from earlier work
[6] = system: blood pressure; conditions: spontaneously hypertensive, renal hypertensive and deoxycortisone acetate salt hypertensive rats; cited from earlier work
[7] = system: ventricular hypertrophy and function; conditions: Dahl salt-sensitive rats; cited from earlier work

ROCK-II (h, amino acids 11-552), sequence (O75116 11-552): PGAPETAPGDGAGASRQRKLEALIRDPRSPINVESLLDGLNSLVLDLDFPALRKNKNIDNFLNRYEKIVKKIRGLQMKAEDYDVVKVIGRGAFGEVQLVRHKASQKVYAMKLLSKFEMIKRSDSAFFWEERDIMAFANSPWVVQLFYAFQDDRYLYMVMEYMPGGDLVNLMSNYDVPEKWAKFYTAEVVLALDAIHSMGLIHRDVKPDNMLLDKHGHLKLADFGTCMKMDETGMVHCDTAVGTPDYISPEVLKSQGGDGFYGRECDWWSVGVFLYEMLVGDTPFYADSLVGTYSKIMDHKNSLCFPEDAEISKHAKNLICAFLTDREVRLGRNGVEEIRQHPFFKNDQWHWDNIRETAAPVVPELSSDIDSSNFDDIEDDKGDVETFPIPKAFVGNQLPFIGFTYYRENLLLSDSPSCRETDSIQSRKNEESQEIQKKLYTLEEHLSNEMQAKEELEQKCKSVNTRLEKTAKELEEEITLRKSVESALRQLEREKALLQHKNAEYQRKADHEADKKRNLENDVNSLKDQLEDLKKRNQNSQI

SMILES: O=S(=O)(c1cccc2cnccc12)N1CCCNCC1 [fasudil]
- effect on infarct size and neurologic deficit [1]: reduce both the infarct size and neurologic deficit
- effect on coronary stenosis [2]: progressively reduce coronary stenosis

- IC50 [3]: 1 µM
SMILES: CN1C(=O)[C@@H](Cc2ccc(-c3ccncc3)cc2)NC(=O)c2cccc(Cl)c21 [Compound 5, (R)-9-chloro-1-methyl-3-(4-(pyridin-4-yl)benzyl)-3,4-dihydro-1H-benzo[e][1,4]diazepine-2,5-dione]

SMILES: C[C@@H](N)[C@H]1CC[C@H](C(=O)Nc2ccncc2)CC1 [Compound Y-27632, Y-27632]
- decrease in activity in cellular assays as compared to in vitro activities [4]: 100-1,000 fold
- effect on neointimal formation [5]: inhibited neointimal formation
- effect on blood pressure [6]: significantly decrease blood pressure
- effect on ventricular hypertrophy and function [7]: improve ventricular hypertrophy and function

- IC50 [3]: > 10 µM
SMILES: C[C@@]1(Cc2ccc(-c3ccncc3)cc2)NC(=O)c2cc(Cl)ccc2NC1=O [Compound 2, (S)-7-chloro-3-methyl-3-(4-(pyridin-4-yl)benzyl)-3,4-dihydro-1H-benzo[e][1,4]diazepine-2,5-dione]
